{"source": "patent US11718616B2", "about": "“JAK kinase inhibitor compounds for treatment of respiratory disease” (THERAVANCE BIOPHARMA R&D IP, LLC, priority 2015, dated 2023)", "key": {"[1]": {"tested_on": "IL-13 induced pSTAT6 induction in lung tissue", "test": "Murine model of IL-13 induced pSTAT6 induction in lung tissue", "format": "in vivo, mouse", "details": "for pSTAT6 inhibition in the pharmacodynamic assay: mouse lung, Assay 5 conditions; for lung concentration smaller than that of the corresponding compound of the invention by a factor of: mouse lung in pharmacodynamic assay, C-1 vs Example 1, C-2 vs 7, C-3 vs 13, C-4 vs 6", "experimental": "Il-13 is an important cytokine underlying the pathophysiology of asthma (Kudlacz et al. Eur. J Pharmacol, 2008, 582, 154-161). IL-13 binds to cell surface receptors activating members of the Janus family of kinases (JAK) which then phosphorylate STAT6 and subsequently activates further transcription pathways. In the described model, a dose of IL-13 was delivered locally into the lungs of mice to induce the phosphorylation of STAT6 (pSTAT6) which is then measured as the endpoint.\nAdult balb/c mice from Harlan were used in the assay. On the day of study, animals were lightly anesthetized with isoflurane and administered either vehicle or test compound (0.5 mg/mL, 50 μL total volume over several breaths) via oral aspiration. Animals were placed in lateral recumbency post dose and monitored for full recovery from anesthesia before being returned to their home cage. Four hours later, animals were once again briefly anesthetized and challenged with either vehicle or IL-13 (0.03 μg total dose delivered, 50 μL total volume) via oral aspiration before being monitored for recovery from anesthesia and returned to their home cage. One hour after vehicle or IL-13 administration, lungs were collected for both pSTAT6 detection using an anti-pSTAT6 ELISA (rabbit mAb capture/coating antibody; mouse mAb detection/report antibody: anti-pSTAT6-pY641; secondary antibody: anti-mouse IgG-HRP) and analyzed for total drug concentration as described above in Assay 4.\nSelected compounds of the invention were tested in the assay. Activity in the model is evidenced by a decrease in the level of pSTAT6 present in the lungs of treated animals at 5 hours compared to the vehicle treated, IL-13 challenged control animals. The difference between the control animals which were vehicle-treated, IL-13 challenged and the control animals which were vehicle-treated, vehicle challenged dictated the 0% and 100% inhibitory effect, respectively, in any given experiment."}, "JAK1": {"target": "JAK1 (Homo sapiens (Human), UniProt P23458)", "sequence (P23458 whole entry)": "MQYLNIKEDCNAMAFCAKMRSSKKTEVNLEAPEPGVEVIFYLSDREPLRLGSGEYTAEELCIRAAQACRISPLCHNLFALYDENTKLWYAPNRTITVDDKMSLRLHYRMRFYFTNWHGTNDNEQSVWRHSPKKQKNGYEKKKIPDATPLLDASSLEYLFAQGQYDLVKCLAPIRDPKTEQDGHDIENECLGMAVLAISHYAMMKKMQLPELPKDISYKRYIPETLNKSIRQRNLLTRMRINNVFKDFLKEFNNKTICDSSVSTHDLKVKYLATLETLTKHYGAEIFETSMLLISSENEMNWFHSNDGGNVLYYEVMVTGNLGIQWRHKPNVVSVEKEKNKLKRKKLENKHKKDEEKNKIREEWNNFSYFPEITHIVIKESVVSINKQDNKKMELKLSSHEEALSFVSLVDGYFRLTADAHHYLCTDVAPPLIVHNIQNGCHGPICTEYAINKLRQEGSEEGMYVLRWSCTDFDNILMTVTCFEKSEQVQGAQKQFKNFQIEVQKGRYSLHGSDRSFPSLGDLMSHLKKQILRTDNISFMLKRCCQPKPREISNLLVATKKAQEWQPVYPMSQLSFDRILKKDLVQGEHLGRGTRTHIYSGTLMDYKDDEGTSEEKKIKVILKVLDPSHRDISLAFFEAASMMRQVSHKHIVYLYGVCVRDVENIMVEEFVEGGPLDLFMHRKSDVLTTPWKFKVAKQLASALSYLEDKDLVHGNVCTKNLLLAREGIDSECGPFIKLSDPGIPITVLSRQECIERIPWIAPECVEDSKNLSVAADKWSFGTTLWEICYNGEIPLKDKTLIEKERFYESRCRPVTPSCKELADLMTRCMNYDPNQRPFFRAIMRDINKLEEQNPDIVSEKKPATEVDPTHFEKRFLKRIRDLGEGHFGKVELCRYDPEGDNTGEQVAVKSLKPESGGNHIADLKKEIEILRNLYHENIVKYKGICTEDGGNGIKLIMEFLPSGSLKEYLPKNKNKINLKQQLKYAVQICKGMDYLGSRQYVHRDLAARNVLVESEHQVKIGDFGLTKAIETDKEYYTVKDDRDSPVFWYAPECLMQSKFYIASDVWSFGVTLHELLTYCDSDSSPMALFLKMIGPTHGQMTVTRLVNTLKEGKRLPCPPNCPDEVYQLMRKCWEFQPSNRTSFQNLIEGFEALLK", "test": "LanthaScreen JAK biochemical assay, JAK1", "details": "C-1 vs Example 1, C-2 vs 7, C-3 vs 13, C-4 vs 6"}, "[2]": {"test": "Dynamic moisture sorption assessment", "format": "physicochemical", "details": "humidity range of 5% to 90% relative humidity, about 25° C.", "experimental": "Dynamic moisture sorption (DMS) measurement was performed using a VTI atmospheric microbalance, SGA-100 system (VTI Corp., Hialeah, Fla. 33016). A weighed sample was used and the humidity was lowest possible value (close to 0% RH) at the start of the analysis. The DMS analysis consisted of an initial drying step (˜0% RH) for 120 minutes, followed by two cycles of sorption and desorption with a scan rate of 5% RH/step over the humidity range of 5% RH to 90% RH. The DMS run was performed isothermally at 25° C."}}}
{"smiles": "CCc1cc(O)c(F)cc1-c1ccc2c(-c3nc4c([nH]3)CCN(C3CN(C5CCS(=O)(=O)C5)C3)C4)n[nH]c2c1", "note": "(centres unmarked) [Example 1-15]", "values": [{"measurement": "pSTAT6 inhibition in the pharmacodynamic assay", "setting": "[1]", "value": "exceptions"}]}
{"smiles": "CCc1cc(O)c(F)cc1-c1ccc2c(-c3nc4c([nH]3)CCN(CCNC3(C#N)CC3)C4)n[nH]c2c1", "note": "[Example 3-1]", "values": [{"measurement": "pSTAT6 inhibition in the pharmacodynamic assay", "setting": "[1]", "value": "exceptions"}]}
{"smiles": "CCc1cc(O)c(F)cc1-c1ccc2c(-c3nc4c([nH]3)CCN(C3CC(C)C3)C4)n[nH]c2c1", "note": "(centres unmarked) [Example C-1, 5-Ethyl-2-fluoro-4-(3-(5-(3-methylcyclobutyl)-4,5,6,7-tetrahydro-1H-imidazo[4,5-c]pyridin-2-yl)-1H-indazol-6-yl)phenol]", "values": [{"measurement": "lung concentration smaller than that of the corresponding compound of the invention by a factor of", "setting": "[1]", "value": 36}, {"measurement": "fold less potent than the corresponding compound of the invention in the enzyme assay", "setting": "JAK1", "value": 2, "unit": "fold"}]}
{"smiles": "CCc1cc(O)c(F)cc1-c1ccc2c(-c3nc4c([nH]3)CCN(CCC(C)C)C4)n[nH]c2c1", "note": "[Example C-2]", "values": [{"measurement": "lung concentration smaller than that of the corresponding compound of the invention by a factor of", "setting": "[1]", "value": 52}, {"measurement": "fold less potent than the corresponding compound of the invention in the enzyme assay", "setting": "JAK1", "value": 3, "unit": "fold"}]}
{"smiles": "CCc1cc(O)c(F)cc1-c1ccc2c(-c3nc4c([nH]3)CCN(CC3CCCOC3)C4)n[nH]c2c1", "note": "(centres unmarked) [Example C-3]", "values": [{"measurement": "lung concentration smaller than that of the corresponding compound of the invention by a factor of", "setting": "[1]", "value": 13}, {"measurement": "fold less potent than the corresponding compound of the invention in the enzyme assay", "setting": "JAK1", "value": 6, "unit": "fold"}]}
{"smiles": "CCc1cc(O)c(F)cc1-c1ccc2c(-c3nc4c([nH]3)CCN(C3CCC(C)CC3)C4)n[nH]c2c1", "note": "(centres unmarked) [Example C-4]", "values": [{"measurement": "lung concentration smaller than that of the corresponding compound of the invention by a factor of", "setting": "[1]", "value": 23}, {"measurement": "fold less potent than the corresponding compound of the invention in the enzyme assay", "setting": "JAK1", "value": 2.5, "unit": "fold"}]}
{"smiles": "CCc1cc(O)c(F)cc1-c1ccc2c(-c3nc4c([nH]3)CCN(C3CCN(C)CC3)C4)n[nH]c2c1", "note": "[crystalline hydrate, 5-ethyl-2-fluoro-4-(3-(5-(1-methylpiperidin-4-yl)-4,5,6,7-tetrahydro-1H-imidazo[4,5-c]pyridin-2-yl)-1H-indazol-6-yl)phenol]", "values": [{"measurement": "weight gain (weight change) on moisture sorption", "setting": "[2]", "value": "less than 0.12%"}]}
